In patent US10538555B2, “Macrocyclic inhibitors of the PD-1/PD-L1 and CD80(B7-1)/PD-L1 protein/protein interactions” (BRISTOL-MYERS SQUIBB COMPANY, priority 2014, dated 2020) one finds IC50 data, which are given here for 14 compounds.

Structures are written as SMILES. Where two headings read alike, the source gives them in different places. Where a SMILES comes first, the peptide text is derived from it. Bridges are numbered along the chain shown (N, C = ends). [ ]: non-standard residue; d: D form. Hyp = O=C(O)[C@@H]1C[C@@H](O)CN1; NMeNle = CCCC[C@H](NC)C(=O)O; NMeA = CN[C@@H](C)C(=O)O; Dab = NCC[C@H](N)C(=O)O

The assay has as its target T1, Human PD-L1/PD-1 (Homo sapiens, UniProt Q9NZQ7).
T1 construct: TVMV protease cleavage site (C); made in house; host or cells: HEK293T cells
Kind of assay: HTRF Human PD-L1/PD-1 binding assay (PD-1-Ig/PD-L1-His). To be noted: PD-L1-His 10 nM, PD-1-Ig 20 nM. The source says: Methods for Testing the Ability of Macrocyclic Peptides to Compete for the Binding of PD-1 to PD-L1 Using Homogenous Time-Resolved Fluorescence (HTRF) Binding Assays
The ability of the macrocyclic peptides of the present disclosure to bind to PD-L1 was investigated using a PD-1/PD-L1 Homogenous Time-Resolved Fluorescence (HTRF) binding assay.
Homogenous Time-Resolved Fluorescence (HTRF) Assays of Binding of Soluble PD-1 to Soluble PD-L1. Soluble PD-1 and soluble PD-L1 refers to proteins with carboxyl-end truncations that remove the transmembrane-spanning regions and are fused to heterologous sequences, specifically the Fc portion of the human immunoglobuling G sequence (Ig) or the hexahistidine epitope tag (His). All binding studies were performed in an HTRF assay buffer consisting of dPBS supplemented with 0.1% (w/v) bovine serum albumin and 0.05% (v/v) Tween-20. For the PD-1-Ig/PD-L1-His binding assay, inhibitors were pre-incubated with PD-L1-His (10 nM final) for 15 m in 4 μl of assay buffer, followed by addition of PD-1-Ig (20 nM final) in 1 μl of assay buffer and further incubation for 15 m. PD-L1 fusion proteins from either human, cynomolgus macaques, or mouse were used. HTRF detection was achieved using europium crypate-labeled anti-Ig monoclonal antibody (1 nM final) and allophycocyanin (APC) labeled anti-His monoclonal antibody (20 nM final). Antibodies were diluted in HTRF detection buffer and 5 μl was dispensed on top of binding reaction. The reaction was allowed to equilibrate for 30 minutes and signal (665 nm/620 nm ratio) was obtained using an EnVision fluorometer. Additional binding assays were established between PD-1-Ig/PD-L2-His (20 and 5 nM, respectively), CD80-His/PD-L1-Ig (100 and 10 nM, respectively) and CD80-His/CTLA4-Ig (10 and 5 nM, respectively). Competition studies between biotinylated Compound No. 71 and human PD-L1-His were performed as follows. Macrocyclic peptide inhibitors were pre-incubated with PD-L1-His (10 nM final) for 60 minutes in 4 μl of assay buffer followed by addition of biotinylated Compound No. 71 (0.5 nM final) in 1 μl of assay buffer. Binding was allowed to equilibrate for 30 minutes followed by addition of europium crypated labeled Streptavidin (2.5 pM final) and APC-labeled anti-His (20 nM final) in 5 μl of HTRF buffer. The reaction was allowed to equilibrate for 30 m and signal (665 nm/620 nm ratio) was obtained using an EnVision fluorometer.
Recombinant Proteins. Carboxyl-truncated human PD-1 (amino acids 25-167) with a C-terminal human Ig epitope tag [hPD-1 (25-167)-3S-IG] and human PD-L1 (amino acids 18-239) with a C-terminal His epitope tag [hPD-L1([…])-tobacco vein mottling virus protease cleavage site (TVMV)-His] were expressed in HEK293T cells and purified sequentially by rProteinA affinity chromatography and size exclusion chromatography.
On the technique in general: Time-resolved FRET reads energy transfer from a long-lived donor to a nearby acceptor.

The mark [1] stands for this setting: class symbol, read-out: HTRF Human PD-L1/PD-1 Binding Assay IC50 Range.
[2] abbreviates: read-out: HTRF Human PD-L1/PD-1 Binding Assay IC50.

T1 sequence (Q9NZQ7 with tags, fused parts or gaps): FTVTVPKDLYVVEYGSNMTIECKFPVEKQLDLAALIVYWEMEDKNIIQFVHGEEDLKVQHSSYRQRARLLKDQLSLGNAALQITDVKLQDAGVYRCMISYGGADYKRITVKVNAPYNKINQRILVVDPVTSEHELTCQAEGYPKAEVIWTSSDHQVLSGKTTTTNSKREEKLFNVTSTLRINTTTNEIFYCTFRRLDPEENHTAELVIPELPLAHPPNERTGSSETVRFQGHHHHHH

For `CCCC[C@H]1C(=O)N(C)CC(=O)N[C@@H](CC(=O)O)C(=O)NC(C(C)c2ccccc2)C(=O)N(C)[C@@H](Cc2ccccc2)C(=O)N[C@@H](Cc2ccc(O)cc2)C(=O)N(C)CC(=O)N[C@@H](Cc2c[nH]c3ccccc23)C(=O)N[C@@H](Cc2ccc(O)cc2)C(=O)N[C@@H](CC(C)C)C(=O)N[C@H](C(=O)NCC(N)=O)CSCC(=O)N[C@@H](Cc2ccccc2)C(=O)N(C)[C@@H](Cc2ccccc2)C(=O)N1C` (single isomer, unassigned) [Example 3230-A], the IC50 under setting [1] is 1000 to 10000 nM.

In the case of `CCCC[C@H]1C(=O)N(C)CC(=O)N[C@@H](CC(=O)O)C(=O)NC(C(C)c2ccccc2)C(=O)N(C)[C@@H](Cc2ccccc2)C(=O)N[C@@H](Cc2ccc(O)cc2)C(=O)N(C)CC(=O)N[C@@H](Cc2c[nH]c3ccccc23)C(=O)N[C@@H](Cc2ccc(O)cc2)C(=O)N[C@@H](CC(C)C)C(=O)N[C@H](C(=O)NCC(N)=O)CSCC(=O)N[C@@H](Cc2ccccc2)C(=O)N(C)[C@@H](Cc2ccccc2)C(=O)N1C` (single isomer, unassigned) [Example 3230-B], the IC50 under setting [1] lay within 100 to 990 nM.

For the compound `CCCC[C@H]1C(=O)N(C)CC(=O)N[C@@H](CC(=O)O)C(=O)NC(C(C)c2ccccc2)C(=O)N(C)[C@@H](Cc2ccccc2)C(=O)N[C@@H](Cc2ccc(O)cc2)C(=O)N(C)CC(=O)N[C@@H](Cc2c[nH]c3ccccc23)C(=O)N[C@@H](Cc2ccc(O)cc2)C(=O)N[C@@H](CC(C)C)C(=O)N[C@H](C(=O)NCC(N)=O)CSCC(=O)N[C@@H](Cc2ccccc2)C(=O)N(C)[C@@H](Cc2ccccc2)C(=O)N1C` (single isomer, unassigned) [Example 3230-C], the IC50 under setting [1] fell in the range of 100 to 990 nM.

Regarding `CCCC[C@H]1C(=O)N(C)CC(=O)N[C@@H](CC(=O)O)C(=O)NC(C(C)c2ccccc2)C(=O)N(C)[C@@H](Cc2ccccc2)C(=O)N[C@@H](Cc2ccc(O)cc2)C(=O)N(C)CC(=O)N[C@@H](Cc2c[nH]c3ccccc23)C(=O)N[C@@H](Cc2ccc(O)cc2)C(=O)N[C@@H](CC(C)C)C(=O)N[C@H](C(=O)NCC(N)=O)CSCC(=O)N[C@@H](Cc2ccccc2)C(=O)N(C)[C@@H](Cc2ccccc2)C(=O)N1C` (single isomer, unassigned) [Example 3230-D], under setting [2], the IC50 was 10000 nM.

Turning to `CCCC[C@H]1C(=O)N(C)CC(=O)N[C@@H](CC(N)=O)C(=O)N[C@@H](C(C)C)C(=O)N(C)[C@@H](Cc2ccccc2)C(=O)N[C@@H](Cc2ccc(O)cc2)C(=O)N(C)CC(=O)N[C@@H](Cc2c[nH]c3ccccc23)C(=O)N[C@@H](Cc2ccc(O)cc2)C(=O)N[C@@H](CCCN)C(=O)N[C@H](C(=O)NCC(N)=O)CSCC(=O)N[C@@H](Cc2ccccc2)C(=O)N(C)[C@@H](Cc2ccncc2)C(=O)N1C` (single isomer, unassigned) [Example 3638-A], under setting [1], the IC50 lay in the range of 1000 to 10000 nM.

`CCCC[C@H]1C(=O)N(C)CC(=O)N[C@@H](CC(N)=O)C(=O)N[C@@H](C(C)C)C(=O)N(C)[C@@H](Cc2ccccc2)C(=O)N[C@@H](Cc2ccc(O)cc2)C(=O)N(C)CC(=O)N[C@@H](Cc2c[nH]c3ccccc23)C(=O)N[C@@H](Cc2ccc(O)cc2)C(=O)N[C@@H](CCCN)C(=O)N[C@H](C(=O)NCC(N)=O)CSCC(=O)N[C@@H](Cc2ccccc2)C(=O)N(C)[C@@H](Cc2ccncc2)C(=O)N1C` (single isomer, unassigned) [Example 3638-B]: the IC50 under setting [1] fell in the range of 10 to 99.9 nM.

Consider `CCCC[C@H]1C(=O)N(C)CC(=O)N[C@@H](CC(=O)O)C(=O)N[C@@H](C(C)C)C(=O)N(C)[C@@H](Cc2ccccc2)C(=O)N[C@@H](Cc2ccc(O)cc2)C(=O)N(C)CC(=O)NC(C)(Cc2c[nH]c3ccccc23)C(=O)N[C@@H](Cc2ccc(O)cc2)C(=O)N[C@@H](CC(C)C)C(=O)N[C@H](C(=O)NCC(N)=O)CSCC(=O)N[C@@H](Cc2ccccc2)C(=O)N(C)[C@@H](Cc2ccccc2)C(=O)N1C` (single isomer, unassigned) [Example 3640-A], for which the IC50 under setting [1] was in the range of 100 to 990 nM.

As to `CCCC[C@H]1C(=O)N(C)CC(=O)N[C@@H](CC(=O)O)C(=O)N[C@@H](C(C)C)C(=O)N(C)[C@@H](Cc2ccccc2)C(=O)N[C@@H](Cc2ccc(O)cc2)C(=O)N(C)CC(=O)NC(C)(Cc2c[nH]c3ccccc23)C(=O)N[C@@H](Cc2ccc(O)cc2)C(=O)N[C@@H](CC(C)C)C(=O)N[C@H](C(=O)NCC(N)=O)CSCC(=O)N[C@@H](Cc2ccccc2)C(=O)N(C)[C@@H](Cc2ccccc2)C(=O)N1C` (single isomer, unassigned) [Example 3640-B], the IC50 under setting [1] was in the range of 100 to 990 nM.

In the case of `CCCC[C@H]1C(=O)N(C)[C@@H](CCCC)C(=O)N[C@@H](CN)C(=O)N[C@H](C(=O)NCC(N)=O)CSCC(=O)N[C@@H](Cc2ccc(O)cc2)C(=O)N(C)[C@@H](C)C(=O)N[C@@H](CC(=O)O)C(=O)N2CCC[C@H]2C(=O)N[C@@H](Cc2c[nH]cn2)C(=O)N[C@@H](CCC(=O)O)C(=O)N2C[C@H](O)C[C@H]2C(=O)N[C@@H](Cc2c[nH]c3ccccc23)C(=O)N[C@@H](CCN)C(=O)N[C@@H](Cc2cn(CC(=O)O)c3ccccc23)C(=O)N1C` (single isomer, unassigned) [Example 5203], the IC50 under setting [1] was 1 to 9.9 nM.

In the case of `CCCC[C@H]1C(=O)N(C)[C@@H](CCCC)C(=O)N[C@@H](CCCN)C(=O)N[C@H](C(=O)NCC(N)=O)CSCC(=O)N[C@@H](Cc2ccc(O)cc2)C(=O)N2CCC(C)(C)[C@H]2C(=O)N[C@@H](CC(N)=O)C(=O)N2CCCC2C(=O)N[C@@H](Cc2cnc[nH]2)C(=O)N[C@@H](CC(C)C)C(=O)N2C[C@H](O)C[C@H]2C(=O)N[C@@H](Cc2c[nH]c3ccccc23)C(=O)N[C@@H](CO)C(=O)N[C@@H](Cc2c[nH]c3ccccc23)C(=O)N1C` (some centres unmarked) [Example 1240], under setting [1], the IC50 lay within 1000 to 10000 nM.

`CCCC[C@H]1C(=O)N(C)[C@@H](CCCC)C(=O)N[C@@H](CCCN)C(=O)N[C@H](C(=O)NCC(N)=O)CSCC(=O)N[C@@H](Cc2ccc(O)cc2)C(=O)N2CCC[C@]2(C)C(=O)N[C@@H](CC(N)=O)C(=O)N2CCCC2C(=O)N[C@@H](Cc2cnc[nH]2)C(=O)N[C@@H](CC(C)C)C(=O)N2C[C@H](O)C[C@H]2C(=O)N[C@@H](Cc2c[nH]c3ccccc23)C(=O)N[C@@H](CO)C(=O)N[C@@H](Cc2c[nH]c3ccccc23)C(=O)N1C` (some centres unmarked) [Example 1241]: the IC50 under setting [2] worked out at 1000 nM.

As to `CCCC[C@H]1C(=O)N(C)[C@@H](CCCC)C(=O)N[C@@H](C)C(=O)N[C@H](C(=O)NCC(N)=O)CSCC(=O)N[C@@H](Cc2ccc(O)cc2)C(=O)N(C)[C@@H](C)C(=O)N[C@@H](CC(N)=O)C(=O)N2CCC[C@H]2C(=O)N[C@@H](Cc2cnc[nH]2)C(=O)N[C@@H](CCN)C(=O)N2C[C@H](O)C[C@H]2C(=O)N[C@@H](Cc2c[nH]c3ccccc23)C(=O)N[C@@H](CO)C(=O)N[C@@H](Cc2c[nH]c3ccccc23)C(=O)N1C` [Example 1245], the IC50 under setting [1] lay in the range of 10 to 99.9 nM.

As to `CCCC[C@H]1C(=O)N(C)[C@@H](CCCC)C(=O)N[C@@H](C)C(=O)N[C@H](C(=O)NCC(N)=O)CSCC(=O)N[C@@H](Cc2ccc(O)cc2)C(=O)N(C)[C@@H](C)C(=O)N[C@@H](CC(=O)O)C(=O)N2CCC[C@H]2C(=O)N[C@@H](Cc2cnc[nH]2)C(=O)N[C@@H](CCCCN)C(=O)N2C[C@H](O)C[C@H]2C(=O)N[C@@H](Cc2c[nH]c3ccccc23)C(=O)N[C@@H](CO)C(=O)N[C@@H](Cc2c[nH]c3ccccc23)C(=O)N1C` [Example 1247] ({CH2CO}-Y[NMeA]DPHK[Hyp]WSW[NMeNle][NMeNle]ACG-NH2; thioether N-14), the IC50 under setting [1] was 10 to 99.9 nM.

`CCCC[C@H]1C(=O)N(C)[C@@H](CCCC)C(=O)N[C@@H](C)C(=O)N[C@H](C(=O)NCC(N)=O)CSCC(=O)N[C@@H](Cc2ccc(O)cc2)C(=O)N(C)[C@@H](C)C(=O)N[C@@H](CCC(=O)O)C(=O)N2CCC[C@H]2C(=O)N[C@@H](Cc2cnc[nH]2)C(=O)N[C@@H](CCN)C(=O)N2C[C@H](O)C[C@H]2C(=O)N[C@@H](Cc2c[nH]c3ccccc23)C(=O)N[C@@H](CO)C(=O)N[C@@H](Cc2c[nH]c3ccccc23)C(=O)N1C` [Example 1248] ({CH2CO}-Y[NMeA]EPH[Dab][Hyp]WSW[NMeNle][NMeNle]ACG-NH2; thioether N-14): the IC50 under setting [1] was in the range of 10 to 99.9 nM.
